Test results published in ChEMBL document CHEMBL1150598, “Decipinin A and decipienolides A and B: new bioactive metabolites from the coprophilous fungus Podospora decipiens” (2002).
Calls of active or inactive are those of the source. No cut-off for these calls is given here.

Key:
[1] = system: Bacillus subtilis; experiment: Antimicrobial activity against Bacillus subtilis ATCC 6051 at 200 ug/disk after 4 days by standard disk assay; type: functional; settings: ATCC 6051, 96 h, read-out: IZ
[2] = system: Ascobolus; experiment: Antimicrobial activity against Ascobolus furfuraceus NRRL 6460 after 4 days by standard disk assay; type: functional, organism-based
[3] = system: Sordaria fimicola; experiment: Antimicrobial activity against Sordaria fimicola NRRL 6459 after 4 days by standard disk assay; type: functional, organism-based
[4] = system: Candida albicans; experiment: Antimicrobial activity against Candida albicans ATCC 90029 after 4 days by standard disk assay; type: functional, organism-based
[5] = system: Fusarium verticillioides; experiment: Antimicrobial activity against Fusarium verticillioides ATCC 24378 at 250 ug/disk after 4 days by standard disk assay; type: functional; settings: ATCC 24378, 96 h, read-out: IZ

Row | Structure (SMILES) | zone of inhibition at 200 µg/disc [1] [mm] | Activity [2] | Activity [3] | Activity [4] | zone of inhibition at 250 µg/disc [5] [mm]
1 | C=C1C(OC(=O)C(C)(C)C(C)O)CC2CC1C21CO[C@@]2(C[C@H](C)C(=O)O2)C1.C=C1C(OC(=O)C(C)(C)C(C)O)CC2CC1C21CO[C@]2(C[C@H](C)C(=O)O2)C1 (some centres undefined) [DECIPIENOLIDE A AND B] | 9 | inactive | inactive | inactive | –
2 | CCC/C=C/C=C/C=C/C(=O)O[C@@H]1C2=CC(=O)C(C)(OC(C)=O)C(=O)C2=CO[C@]12O[C@H](C)CC[C@@H]2OC(=O)CCC(=O)O (some centres undefined) [DECIPININ A] | 9 | inactive | inactive | inactive | 22
